Experimental data published in PMC6820371, “Terbium-161 for PSMA-targeted radionuclide therapy of prostate cancer” (European Journal of Nuclear Medicine and Molecular Imaging, 2019).
“Also recorded” adds a separate entry of the source. Read-outs that look alike come from different tables or passages of the source. Marks after values point to notes of the source that are not given here.

What was measured:
[1] = test system: PC-3 PIP tumor-bearing mice; experiment: Therapy study - assessment of potential early side effects; format: in vivo; parameters: key to Histology: Bone marrow sternum / Histology: Sternum (bone) / Histology: Bone marrow femur / Histology: Femur and tibia (bone) / Histology: Salivary glands / Histology: Mandibular lymph node: NHAIR: no histological abnormality is recognized; IC: increased cellularity, myeloid lineage; SH: Sinus histiocytosis; LH: lymphoid hyperplasia; 1: minimal severity; 2: mild; 3: moderate; 4: marked; 5: severe; conditions: for ALB (blood plasma) / ALP (blood plasma) / BUN (blood plasma) / CRE (blood plasma) / TBIL (blood plasma): at euthanasia; for Brain mass / Kidney mass / Liver mass / Spleen Mass: day of euthanasia; for Histology: Bone marrow femur / Histology: Bone marrow sternum / Histology: Femur and tibia (bone) / Histology: Mandibular lymph node / Histology: Salivary glands / Histology: Sternum (bone): individual mice M1-M6
Method: Potential early side-effects related to the exposure to radiation were evaluated by the assessment of absolute and relative (to body and to brain) organ weights, selected clinical chemistry plasma parameters including creatinine (CRE), blood urea nitrogen (BUN), alkaline phosphatase (ALP), total bilirubin (TBIL), and albumin (ALB), as well as via histological analysis of bone marrow and salivary glands. The data were analyzed for statistical significance (Supplementary material).
Body and organ mass and mass ratios: As a measure to identify undesired side effects, body weights were compared at the day when the first control mouse had to be euthanized (Day 18; Table S3). The relative body weight (RBW) and the relative tumor volume (RTV) were calculated as stated in the main manuscript. Kidneys, liver, spleen and brain were collected and weighed at the day of euthanasia when an endpoint was reached or at the end of the study at Day 84 (Table S3). The organ mass-to-body mass and the organ-mass-to-brain-mass ratios were calculated for kidneys, liver and spleen (Table S4). The average organ masses of mice from each group were analyzed for significance using a one-way ANOVA test with a Tukey’s post correction (GraphPad Prism software, version 7). A p-value of <0.05 was considered as statistically significant.
Blood plasma parameters: Blood was taken from the retrobulbar vein immediately before euthanasia for determination of blood plasma parameters. The values of creatinine (CRE), blood urea nitrogen (BUN), alkaline phosphatase (ALP), total bilirubin (BIL) and albumin (ALB) were determined in the plasma after centrifugation of the blood using a dry chemistry analyzer (DRI-CHEM 4000i, FUJIFILM, Japan) (Table S5). The average blood plasma parameters of each group were analyzed for significance using a one-way ANOVA test with a Tukey’s post correction (GraphPad Prism software, version 7). A p-value of <0.05 was considered as statistically significant.
Necropsy, tissue processing and histological examination: After euthanasia and exsanguination, mice were dissected and, after a full macroscopic examination, sternum, femur and salivary glands were quickly removed and fixed in 4% neutral-buffered formalin (Formafix, Hittnau, Switzerland). After adequate fixation, femoral and sternal bones were decalcified in 10% ethylenediamine tetraacetic acid over a period of 5 days. Both bones and the salivary glands were subsequently trimmed, dehydrated through graded alcohols and routinely paraffin wax embedded. Sections (3–5 µm) were prepared, mounted on glass slides and routinely stained with hematoxylin and eosin (HE). Microscopic findings in the HE-stained livers were classified with standard pathological nomenclature and grading system.

[2] = test system: PC-3 PIP tumor-bearing mice; conditions: for Median Survival: control 19 days
Method: Athymic nude BALB/c mice were obtained from Charles River Laboratories (Sulzfeld, Germany) at the age of 5–6 weeks. […] Therapy studies were performed with mice inoculated with PC-3 PIP cells (4 × 10^6 cells in HBSS with Ca^2+/Mg^2+) on the right shoulder (Supplementary material).
Three groups of mice (n = 6) were injected with only saline, ^161Tb-PSMA-617 (5.0 MBq; 1 nmol/mouse), or ^161Tb-PSMA-617 (10 MBq; 1 nmol/mouse) at Day 0 of the therapy, 6 days after PC-3 PIP tumor cell inoculation (Table 1). The mice were monitored by measuring body weights and the tumor sizes every other day over 12 weeks. Mice were euthanized when pre-defined endpoint criteria were reached, or when the study was terminated at Day 84 (Supplementary material). The relative body weight (RBW) was defined as [BWx/ BW0], where BWx is the body weight in gram at a given day x, and BW0 the body weight in grams at Day 0. The tumor dimension was determined by measuring the longest tumor axis (L) and its perpendicular axis (W) with a digital caliper. The tumor volume (V) was calculated according to the eq. [V = 0.5 * (L * W^2)]. The relative tumor volume (RTV) was defined as [TVx/TV0], where TVx is the tumor volume in mm^3 at a given day x, and TV0 the tumor volume in mm^3 at Day 0.
The efficacy of the radionuclide therapy was assessed by the tumor growth delay (TGDx), which was calculated as the time required for the tumor volume to increase x-fold over the initial volume at Day 0. The tumor growth delay index [TGDIx = TGDx(T)/TGDx(C)] was calculated as the TGDx ratio of treated mice (T) over control mice (C) for a 2-fold (x = 2, TGD2) and 5-fold (x = 5, TGD5) increase of the initial tumor volume. Statistical analysis was performed by a one-way ANOVA with Tukey’s multiple comparison post-test using GraphPad Prism software (version 7). A value of p < 0.05 was considered statistically significant. The median survival was calculated by Kaplan–Meier curves using GraphPad Prism software (version 7).
Methods: The therapy was started at Day 0 by injecting mice with the radioligands, 6 days after PC-3 PIP tumor cell inoculation (4×10^6 cells in HBSS with Ca^2+/Mg^2+) on the right shoulder.
Endpoint criteria: Mice were euthanized when a predefined endpoint criterion was reached or when the study was finalized at Day 84. Endpoint criteria were defined as (i) body weight loss of >15%, (ii) a tumor volume of >800 mm^3 (iii) a combination of body weight loss of >10% and a tumor volume of >700 mm^3 or (iv) signs of unease and pain or a combination thereof.

## O=C([O-])CN1CCN(CC(=O)[O-])CCN(CC(=O)NCC2CCC(C(=O)NC(Cc3ccc4ccccc4c3)C(=O)NCCCCC(NC(=O)NC(CCC(=O)O)C(=O)O)C(=O)O)CC2)CCN(CC(=O)[O-])CC1.[161Tb+3] (stereo not drawn) [^161Tb-PSMA-617]
[1]; 5.0 MBq
  Body weight at Day 0: 17 ± 1.2 g
  Body weight at Day 18: 17 ± 1.2 g
  Body weight at Day of euthanasia: 15 ± 1.7 g
  Body weight over time: body weight loss over time
  Kidney-to-body ratio: 0.014 ± 0.001
  Kidney-to-brain ratio: 0.50 ± 0.11
  Liver-to-body ratios: 0.048 ± 0.010
  Liver-to-brain ratios: 1.8 ± 0.71
  Spleen-to-body ratios: 0.004 ± 0.001
  Spleen-to-brain ratios: 0.16 ± 0.05
  ALB (blood plasma): 21 ± 1 g/L
  ALP (blood plasma): 44 ± 1 U/L
  BUN (blood plasma): 8.3 ± 0.50 mmol/L
  CRE (blood plasma): <18 µmol/L
  TBIL (blood plasma): 4 ± 1 µmol/L
  Brain mass: 371 ± 15 mg
  Kidney mass: 208 ± 19 mg
  Liver mass: 737 ± 143 mg
  Spleen Mass: 63 ± 13 mg
[1]; 5.0 MBq and 10 MBq
  Undesired side-effects: no signs of undesired side-effects were detectable
[1]; 5 MBq
  Histology: Bone marrow femur: NHAIR
  Histology: Bone marrow sternum: NHAIR
  Histology: Femur and tibia (bone): NHAIR
  Histology: Mandibular lymph node: NHAIR and SH 1 and LH 1
  Histology: Salivary glands: NHAIR
  Histology: Sternum (bone): NHAIR
[1]; 5.0 and 10 MBq/mouse
  Histological changes in the bone marrow and the salivary glands attributable to application: no histological changes
[1]; 5.0 and 10 MBq/mouse, p>0.05
  Blood plasma parameters compared to control group: did not show any significant differences
[1]; 10 MBq
  Body weight at Day 0: 18 ± 1.0*^3) g
  Body weight at Day 18: 19 ± 1.2*^4) g
  Body weight at Day of euthanasia: 19 ± 1.6*^5) g
  Body weight over time: remained stable
  Kidney-to-body ratio: 0.014 ± 0.001
  Kidney-to-brain ratio: 0.64 ± 0.09^*2)
  Liver-to-body ratios: 0.054 ± 0.002
  Liver-to-brain ratios: 2.5 ± 0.87
  Spleen-to-body ratios: 0.005 ± 0.001
  Spleen-to-brain ratios: 0.23 ± 0.05^*3)
  ALB (blood plasma): 19 ± 1 g/L
  ALP (blood plasma): 54 ±15 U/L
  BUN (blood plasma): 7.8 ± 1.3 mmol/L
  CRE (blood plasma): <18 µmol/L
  TBIL (blood plasma): 4 ± 1 µmol/L
  Brain mass: 402 ± 18 mg
  Kidney mass: 258 ± 41*^5) mg
  Liver mass: 994 ± 65*^5) mg
  Spleen Mass: 92 ± 22*^5) mg
  Histology: Bone marrow femur: NHAIR
  Histology: Bone marrow sternum: IC 1 and NHAIR
  Histology: Femur and tibia (bone): NHAIR
  Histology: Mandibular lymph node: SH 2 LH 1 and SH 1 and LH 1 and NHAIR
  Histology: Salivary glands: NHAIR
  Histology: Sternum (bone): NHAIR
[2]; 5.0 MBq/mouse
  First mouse euthanized: 30 days
  Last mouse euthanized: 66 days
  TGDI2: 4.2 ± 1.2
  TGDI3: 2.5 ± 0.6
  Median Survival: 36 days
[2]; 10 MBq/mouse
  First mouse euthanized: 42 days
  Median Survival: 65 days
[2]; 10 MBq/mouse, n = 6
  Mice still alive at the end of the study at Day 84: two
[2]; 10 MBq/mouse, n = 6, over 12 weeks
  Mice in which PC-3 PIP tumors disappeared entirely: two of the six; also recorded: two out of six
[2]; 10 MBq/mouse, study end at Day 84, 2 mice had not reached an endpoint
  Last mouse euthanized: 84^1) Day
